Consider eleven compounds from patent US7851589B2, “Polypeptide derived from the ryanodine receptor that inhibits calcium leakage” (Otsuka Pharmaceutical Co., Ltd., priority 2004, dated 2010).

The test system of assay [1] is ischemic reperfusion injury. As to conditions: Hypertens. Res., 25: 303-9 (2002); cited from earlier work.
Assay [2] deals with tachycardia-induced canine heart failure model. As to conditions: cited from earlier work.
For assay [3], the target named is RyR2 (Canis lupus familiaris, UniProt A0A8I3MT21). The note with it: cited from earlier work.
For assay [4], the system named is normal canine model. The note with it: cited from earlier work.
The subject of assay [5] is neuron death during cerebral ischemia. As to conditions: Neurosci. Lett., 158: 105-108 (1993); cited from earlier work.
Assay [6] has as its system ryanodine receptor. Put plainly: FK506-induced Ca2+ leakage in sarcoplasmic reticulum derived from canine myocardium (fluo 3 indicator). Type of assay: biochemical. The note with it: for Ca2+ leakage inhibitory effect: 30 μM FK506 + 1 μM thapsigargin, value 20 seconds after addition, canine myocardial sarcoplasmic reticulum; for Ca2+ leakage inhibitory effect / Ca2+ leakage inhibitory activity compared with R2P: polypeptide 0.1, 0.3 or 1.0 μM. How it is done:
Ca^2+ leakage inhibitory activity was measured through the method of Yano, M., et al. [Yano, et al., Circulation, 102, 2131-2136 (2000)].
Firstly, sarcoplasmic reticulum was prepared from canine myocardium through the method of Kranias, et al. [Kranias E., et al., Biochim. Biophys. Acta., 709, 28-37 (1982)].
Subsequently, the sarcoplasmic reticulum (0.2 mg/mL) was incubated in 0.5 mL of 20 mM MOPS buffer (pH 6.8) containing […] potassium gluconate, 0.2 mM EGTA-calcium buffer (free calcium: Ca^2+=0.3 μM), and 10 mM NaN3.
After the fluorescence value was maintained constant, 0.5 mM ATP (product of Sigma) and 0.5 mM magnesium chloride were added to the resultant mixture, to thereby initiate Ca^2+ uptake. The time course of Ca^2+ uptake was measured. Ca^2+ uptake was measured by means of fluo 3 (product of Molecular Probes) serving as a Ca^2+ indicator, and the fluorescence intensity at an excitation wavelength of 480 nm and an emission wavelength of 530 nm was measured by means of a fluorometer.
After Ca^2+ uptake reached a plateau, 1 μM thapsigargin (product of Wako Pure Chemical Industries, Ltd.) was added to thereby inhibit sarco(endo)plasmic reticulum Ca-ATPase (SERCA) activity for elimination of the influence of SERCA. The difference between the fluorescence value before addition of ATP and the fluorescence value at the time of completion of ATP-induced active Ca^2+ uptake (i.e., the fluorescence value at the time when Ca^2+ uptake reached a plateau) was taken as 100%.
Ca^2+ leakage induced by simultaneous addition of thapsigargin and 30 μM FK506 (product of Fujisawa Pharmaceutical Co., Ltd,), which was regarded as a control of Ca^2+ leakage induction, was measured by means of a Ca^2+ indicator.
A polypeptide obtained in (a) above (concentration: 0.1 μM, 0.3 μM, or 1.0 μM) and FK506 (30 μM/L) were added simultaneously with administration of thapsigargin, and the effect of inhibiting the thus-induced Ca^2+ leakage via ryanodine receptor was measured by means of a Ca^2+ indicator in a manner similar to that described above.
In each of these figures, the vertical axis corresponds to the value as measured 20 seconds after addition of thapsigargin, FK506, and a polypeptide. The value is the average of data of measurement performed twice or three times.

Chain of RyR2 (A0A8I3MT21 1-4967): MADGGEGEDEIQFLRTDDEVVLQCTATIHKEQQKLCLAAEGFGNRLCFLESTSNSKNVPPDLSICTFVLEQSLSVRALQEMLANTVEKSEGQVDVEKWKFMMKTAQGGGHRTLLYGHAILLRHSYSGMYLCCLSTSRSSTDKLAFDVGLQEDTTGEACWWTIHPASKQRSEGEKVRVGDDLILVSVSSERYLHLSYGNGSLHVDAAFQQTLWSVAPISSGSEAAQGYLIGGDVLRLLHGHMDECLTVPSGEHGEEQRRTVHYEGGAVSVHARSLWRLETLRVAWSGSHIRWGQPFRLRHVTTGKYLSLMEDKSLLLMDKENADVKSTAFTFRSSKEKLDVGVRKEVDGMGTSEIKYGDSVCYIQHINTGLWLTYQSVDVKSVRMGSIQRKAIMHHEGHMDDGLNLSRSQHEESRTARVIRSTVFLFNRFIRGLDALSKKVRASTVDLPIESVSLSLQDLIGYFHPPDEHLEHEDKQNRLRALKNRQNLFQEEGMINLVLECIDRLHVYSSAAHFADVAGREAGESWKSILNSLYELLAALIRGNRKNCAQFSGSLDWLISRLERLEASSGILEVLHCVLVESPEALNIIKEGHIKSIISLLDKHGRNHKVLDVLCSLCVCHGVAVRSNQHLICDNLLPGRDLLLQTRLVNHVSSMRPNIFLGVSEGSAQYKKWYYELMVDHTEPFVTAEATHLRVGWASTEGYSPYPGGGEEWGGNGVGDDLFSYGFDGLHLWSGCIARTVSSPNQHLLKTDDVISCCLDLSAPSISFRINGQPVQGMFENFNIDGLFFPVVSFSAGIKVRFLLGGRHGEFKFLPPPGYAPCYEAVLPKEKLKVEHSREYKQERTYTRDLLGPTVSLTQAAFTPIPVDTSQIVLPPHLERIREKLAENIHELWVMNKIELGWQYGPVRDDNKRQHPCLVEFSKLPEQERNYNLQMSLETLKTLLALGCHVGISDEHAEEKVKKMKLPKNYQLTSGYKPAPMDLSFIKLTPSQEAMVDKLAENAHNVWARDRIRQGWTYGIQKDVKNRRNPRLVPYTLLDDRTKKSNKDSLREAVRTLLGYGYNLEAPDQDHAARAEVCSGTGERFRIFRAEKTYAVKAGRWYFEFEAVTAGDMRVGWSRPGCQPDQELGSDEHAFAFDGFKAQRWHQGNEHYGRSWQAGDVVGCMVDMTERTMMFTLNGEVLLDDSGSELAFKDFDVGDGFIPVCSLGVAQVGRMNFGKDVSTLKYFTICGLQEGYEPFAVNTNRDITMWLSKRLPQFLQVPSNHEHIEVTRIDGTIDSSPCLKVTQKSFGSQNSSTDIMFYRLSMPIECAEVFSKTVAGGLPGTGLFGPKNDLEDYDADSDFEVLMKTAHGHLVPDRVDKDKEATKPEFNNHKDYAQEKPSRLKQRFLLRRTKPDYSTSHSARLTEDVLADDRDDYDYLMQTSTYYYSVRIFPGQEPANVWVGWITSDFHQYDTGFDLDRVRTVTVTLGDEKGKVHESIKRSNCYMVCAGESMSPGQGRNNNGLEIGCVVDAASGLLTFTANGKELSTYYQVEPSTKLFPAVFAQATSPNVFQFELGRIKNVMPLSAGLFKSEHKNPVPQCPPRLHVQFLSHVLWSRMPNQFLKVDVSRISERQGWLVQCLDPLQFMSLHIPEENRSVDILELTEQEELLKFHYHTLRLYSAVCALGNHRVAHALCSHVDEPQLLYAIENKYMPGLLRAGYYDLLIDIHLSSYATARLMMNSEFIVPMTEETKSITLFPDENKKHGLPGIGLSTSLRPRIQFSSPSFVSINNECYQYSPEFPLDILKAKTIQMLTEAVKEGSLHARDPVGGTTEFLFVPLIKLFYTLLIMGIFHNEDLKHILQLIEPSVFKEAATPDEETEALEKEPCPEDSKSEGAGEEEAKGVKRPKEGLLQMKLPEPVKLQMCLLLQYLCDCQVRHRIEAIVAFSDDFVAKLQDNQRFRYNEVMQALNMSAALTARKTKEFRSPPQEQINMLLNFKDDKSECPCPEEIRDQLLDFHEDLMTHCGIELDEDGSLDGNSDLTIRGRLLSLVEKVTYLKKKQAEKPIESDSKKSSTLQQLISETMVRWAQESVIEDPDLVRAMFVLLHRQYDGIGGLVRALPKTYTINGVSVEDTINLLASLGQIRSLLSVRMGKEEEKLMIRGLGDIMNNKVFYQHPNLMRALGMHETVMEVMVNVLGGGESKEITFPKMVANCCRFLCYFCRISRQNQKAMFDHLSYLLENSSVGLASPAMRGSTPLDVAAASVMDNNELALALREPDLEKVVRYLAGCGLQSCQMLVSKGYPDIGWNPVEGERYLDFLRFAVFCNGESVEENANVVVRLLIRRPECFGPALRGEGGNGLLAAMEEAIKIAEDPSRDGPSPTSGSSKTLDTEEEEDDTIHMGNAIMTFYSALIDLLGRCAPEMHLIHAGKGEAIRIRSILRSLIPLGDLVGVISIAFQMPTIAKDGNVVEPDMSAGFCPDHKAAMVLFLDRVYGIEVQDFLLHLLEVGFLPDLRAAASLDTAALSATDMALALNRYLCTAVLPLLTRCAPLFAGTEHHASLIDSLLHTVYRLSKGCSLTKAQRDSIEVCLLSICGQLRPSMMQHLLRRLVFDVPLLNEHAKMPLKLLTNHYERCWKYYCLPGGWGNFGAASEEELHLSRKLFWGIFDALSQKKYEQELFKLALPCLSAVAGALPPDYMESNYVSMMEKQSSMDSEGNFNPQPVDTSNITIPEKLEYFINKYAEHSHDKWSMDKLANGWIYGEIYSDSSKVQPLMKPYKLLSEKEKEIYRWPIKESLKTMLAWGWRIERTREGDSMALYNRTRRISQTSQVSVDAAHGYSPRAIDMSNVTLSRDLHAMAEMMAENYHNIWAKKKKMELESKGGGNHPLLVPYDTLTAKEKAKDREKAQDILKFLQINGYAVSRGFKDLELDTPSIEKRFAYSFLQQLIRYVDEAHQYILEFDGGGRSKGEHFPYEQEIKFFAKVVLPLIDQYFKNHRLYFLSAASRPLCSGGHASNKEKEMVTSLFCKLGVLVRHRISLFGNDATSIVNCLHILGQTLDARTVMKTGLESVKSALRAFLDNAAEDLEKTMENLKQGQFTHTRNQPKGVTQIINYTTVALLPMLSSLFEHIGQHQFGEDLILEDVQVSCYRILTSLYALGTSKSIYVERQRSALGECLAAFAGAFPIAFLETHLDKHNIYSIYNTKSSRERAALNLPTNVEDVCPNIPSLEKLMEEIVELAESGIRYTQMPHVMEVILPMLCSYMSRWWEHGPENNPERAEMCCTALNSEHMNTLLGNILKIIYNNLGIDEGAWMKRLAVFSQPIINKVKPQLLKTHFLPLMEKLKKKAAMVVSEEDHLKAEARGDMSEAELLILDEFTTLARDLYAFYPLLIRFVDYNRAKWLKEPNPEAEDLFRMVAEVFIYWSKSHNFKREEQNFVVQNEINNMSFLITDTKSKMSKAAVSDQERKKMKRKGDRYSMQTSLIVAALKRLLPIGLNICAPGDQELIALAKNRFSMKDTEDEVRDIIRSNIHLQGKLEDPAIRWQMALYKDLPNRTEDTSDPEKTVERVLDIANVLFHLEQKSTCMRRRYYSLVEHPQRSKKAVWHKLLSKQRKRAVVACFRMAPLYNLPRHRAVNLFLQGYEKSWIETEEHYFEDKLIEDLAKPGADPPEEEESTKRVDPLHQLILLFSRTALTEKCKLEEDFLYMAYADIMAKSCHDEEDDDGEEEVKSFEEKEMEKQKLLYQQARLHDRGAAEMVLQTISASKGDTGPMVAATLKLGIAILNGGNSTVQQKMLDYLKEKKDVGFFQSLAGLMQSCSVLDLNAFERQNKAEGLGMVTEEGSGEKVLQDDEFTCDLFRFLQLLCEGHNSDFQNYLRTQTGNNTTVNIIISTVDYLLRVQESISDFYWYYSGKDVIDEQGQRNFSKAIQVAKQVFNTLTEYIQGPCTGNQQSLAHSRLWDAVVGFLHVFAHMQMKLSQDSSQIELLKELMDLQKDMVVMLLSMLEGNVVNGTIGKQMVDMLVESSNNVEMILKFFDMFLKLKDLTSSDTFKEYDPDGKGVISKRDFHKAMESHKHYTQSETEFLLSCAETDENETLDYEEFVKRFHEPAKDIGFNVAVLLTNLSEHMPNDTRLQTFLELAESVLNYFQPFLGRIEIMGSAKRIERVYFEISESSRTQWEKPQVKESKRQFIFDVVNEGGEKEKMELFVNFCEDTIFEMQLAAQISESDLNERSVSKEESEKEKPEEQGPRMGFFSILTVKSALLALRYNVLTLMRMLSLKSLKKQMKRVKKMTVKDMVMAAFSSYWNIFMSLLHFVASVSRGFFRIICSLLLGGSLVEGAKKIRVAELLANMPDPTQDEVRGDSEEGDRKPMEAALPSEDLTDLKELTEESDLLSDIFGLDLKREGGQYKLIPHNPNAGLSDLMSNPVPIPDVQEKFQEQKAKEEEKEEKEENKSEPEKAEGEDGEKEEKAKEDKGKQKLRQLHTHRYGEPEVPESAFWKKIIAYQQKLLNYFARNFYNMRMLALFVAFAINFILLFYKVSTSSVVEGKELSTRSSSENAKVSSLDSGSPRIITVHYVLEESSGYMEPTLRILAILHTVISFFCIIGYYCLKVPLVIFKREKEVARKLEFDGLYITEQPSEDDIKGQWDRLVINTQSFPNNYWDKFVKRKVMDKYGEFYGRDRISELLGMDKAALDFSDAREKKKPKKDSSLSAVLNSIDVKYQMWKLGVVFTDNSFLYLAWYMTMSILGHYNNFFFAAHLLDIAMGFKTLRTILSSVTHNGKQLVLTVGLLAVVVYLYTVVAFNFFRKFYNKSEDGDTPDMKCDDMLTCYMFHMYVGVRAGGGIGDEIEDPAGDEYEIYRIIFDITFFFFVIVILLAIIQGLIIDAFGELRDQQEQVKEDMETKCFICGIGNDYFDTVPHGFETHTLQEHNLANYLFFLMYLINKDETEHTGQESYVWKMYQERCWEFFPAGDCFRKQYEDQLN

As for `COc1ccc2c(c1)CN(C(=O)CCN1CCC(Cc3ccccc3)CC1)CCS2` [JTV-519], in assay [1], the “Effect on ischemic reperfusion injury” value is recorded as “effective for ischemic reperfusion injury”. Also, the entries for the “Effect on cardiac function” value in assay [2] and in assay [4] were “exhibit the effect of improving cardiac function” and “exhibit no effect on cardiac function”, respectively. The “Correction of abnormal Ca2+ leakage via RyR2” value in assay [3] (Non-Patent Document 9) was “corrects abnormal Ca^2+ leakage via RyR2”. The “Inhibition of Ca2+ leakage from the sarcoplasmic reticulum of failing myocardium” value in assay [3] (known property of the control) was “inhibit Ca^2+ leakage from the sarcoplasmic reticulum of failing myocardium in a concentration-dependent manner”.
`O=C1CN(/N=C/c2ccc(-c3ccc([N+](=O)[O-])cc3)o2)C(O)=N1` [dantrolene]: the “Inhibition of neuron death during cerebral ischemia” value in assay [5] is “inhibit neuron death during cerebral ischemia”.
Turning to “MSV-RP2: M+2112-2149; addition of methionine, serine and valine to the N-terminal of R2P (MSVEDTINLLASLGQIRSLLSVRMGKEEEKLMIRGLGDI)”, the “Ca2+ leakage inhibitory effect” value in assay [6] is recorded as “exhibit Ca^2+ leakage inhibitory effect in a concentration-dependent manner”. For the same compound, the “Ca2+ leakage inhibitory activity compared with R2P” value in assay [6] (FK506-induced leakage) is given as “lower than that of R2P”.
“R2JF: hRyR2 amino acid Nos. 2086-2133; SEQ ID NO: 14 peptide introduced to the N-terminal of RP1-20 (VLLHRQYDGIGGLVRALPKTYTINGVSVEDTINLLASLGQIRSLLSVR)”: in assay [6], the “Ca2+ leakage inhibitory effect” value was “exhibit no Ca^2+ leakage inhibitory effect”.
Take “R2P: 36 amino acids corresponding to positions 2114 to 2149 of human ryanodine receptor type 2 (hRyR2) (EDTINLLASLGQIRSLLSVRMGKEEEKLMIRGLGDI)”: the “Ca2+ leakage inhibitory effect compared with control JTV519” value in assay [6] (1.0 μM polypeptide vs 0.3 μM JTV519, FK506-induced leakage) is listed as “comparable to that of 0.3 μM JTV519”. In addition, the “Ca2+ leakage inhibitory effect” value in assay [6] is reported as “inhibits Ca^2+ leakage in a concentration-dependent manner”.
Take “RP1-20: hRyR2 amino acid Nos. 2114-2133; deletion of 16 amino acids at the C-terminal of R2P (EDTINLLASLGQIRSLLSVR)”: the “Ca2+ leakage inhibitory effect” value in assay [6] is “exhibit Ca^2+ leakage inhibitory effect in a concentration-dependent manner”. Further, the “Ca2+ leakage inhibitory activity compared with R2P” value in assay [6] (FK506-induced leakage) is given as “lower than that of R2P”.
For the compound “RP1-25: hRyR2 amino acid Nos. 2114-2138; deletion of 11 amino acids at the C-terminal of R2P (EDTINLLASLGQIRSLLSVRMGKEE)”, in assay [6], the “Ca2+ leakage inhibitory effect” value is reported as “exhibit Ca^2+ leakage inhibitory effect in a concentration-dependent manner”. In addition, the “Ca2+ leakage inhibitory activity compared with R2P” value in assay [6] (FK506-induced leakage) is reported as “lower than that of R2P”.
The corresponding values for “RP1-30: hRyR2 amino acid Nos. 2114-2143; deletion of six amino acids at the C-terminal of R2P (EDTINLLASLGQIRSLLSVRMGKEEEKLMI)” are “exhibit Ca^2+ leakage inhibitory effect in a concentration-dependent manner” and “lower than that of R2P”.
The like results for “RP13-32: hRyR2 amino acid Nos. 2126-2145; deletion of 12 N-terminal and four C-terminal amino acids of R2P (IRSLLSVRMGKEEEKLMIRG)” were, in that order, “exhibit Ca^2+ leakage inhibitory effect in a concentration-dependent manner” and “lower than that of R2P”.
Regarding “RP17-36: hRyR2 amino acid Nos. 2130-2149; deletion of 16 amino acids at the N-terminal of R2P (LSVRMGKEEEKLMIRGLGDI)”, in assay [6], the “Ca2+ leakage inhibitory effect” value is “exhibit Ca^2+ leakage inhibitory effect in a concentration-dependent manner”. For the same compound, in assay [6] (FK506-induced leakage), the “Ca2+ leakage inhibitory activity compared with R2P” value is recorded as “lower than that of R2P”.
For the compound “SEQ ID NO: 14: hRyR2 amino acid Nos. 2086-2113 (VLLHRQYDGIGGLVRALPKTYTINGVSV)”, the “Ca2+ leakage inhibitory effect” value in assay [6] is “having no Ca^2+ leakage inhibitory effect”.
